Measured values published in patent publication US20230234943A1, “TREX1 INHIBITORS AND USES THEREOF” (Tempest Therapeutics, Inc., priority 2020, published 2023).

Biological target: T1, Human TREX1 enzyme (amino acids 1-242) (Homo sapiens, UniProt Q9NSU2)
T1 construct: Human TREX1 enzyme (amino acids 1-242)
T1 sequence (Q9NSU2 1-242): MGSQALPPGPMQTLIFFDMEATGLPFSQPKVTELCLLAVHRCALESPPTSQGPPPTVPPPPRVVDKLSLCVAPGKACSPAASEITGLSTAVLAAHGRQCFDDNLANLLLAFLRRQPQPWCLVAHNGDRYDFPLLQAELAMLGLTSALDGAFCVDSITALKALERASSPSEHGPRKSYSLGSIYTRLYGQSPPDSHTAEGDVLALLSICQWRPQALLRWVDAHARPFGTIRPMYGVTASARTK
Assay: Human TREX1 enzymatic assay with dsDNA native oligonucleotide (Picogreen fluorescence)
Format: biochemical
Details: 2 mM dithiothreitol in assay buffer; 50 nM dsDNA oligonucleotide; 30 min preincubation at 25° C.; read-out: TREX1/Human + DTT IC50 AVG
In short: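 Remaining dsDNA quantified by Picogreen fluorescence after EDTA quench, with no-enzyme and DMSO wells as controls. Reactions used 50 nM annealed oligonucleotide for 5–15 min at 25 °C, after a 30 min compound–enzyme preincubation (0.8–0.16 nM TREX1; 2% DMSO; pH 7.7 Tris, 5 mM MgCl2).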

Question: For `COc1cc(-c2nc3cc(N4CCN(S(=O)(=O)C(C)C)CC4)ccc3[nH]2)cc(O)c1O` [Example 116, 5-(5-(4-(isopropylsulfonyl)piperazin-1-yl)-1H-benzo[d]imidazol-2-yl)-3-methoxybenzene-1,2-diol], which IC50 is on record?
Answer: The IC50 was 1 to 10 µM.

Question: With `COc1cc(-c2nc3ccccc3n2C2(C)CCC2)c(C)c(O)c1O` [Example 225, 6-methoxy-3-methyl-4-(1-(1-methylcyclobutyl)-1H-benzo[d]imidazol-2-yl)benzene-1,2-diol] as the compound, how does the IC50 read?
Answer: The IC50 was 1 to 10 µM.

Question: How did the IC50 turn out when `COc1cc(-c2nc3ccc(C(=O)NCC(F)F)cc3n2C2(C)COC2)c(F)c(O)c1O` [Example 251, N-(2,2-difluoroethyl)-2-(2-fluoro-3,4-dihydroxy-5-methoxyphenyl)-1-(3-methyloxetan-3-yl)-1H-1,3-benzodiazole-6-carboxamide] was run?
Answer: The IC50 was no more than 0.1 µM.

Question: With `COc1cc(-c2nc3ccc(N4CCC4)cc3n2C2CCOC2)cc(C(=O)O)c1O` (centres unmarked) [Example 166, 5-(6-(azetidin-1-yl)-1-(tetrahydrofuran-3-yl)-1H-benzo[d]imidazol-2-yl)-2-hydroxy-3-methoxybenzoic acid] as the compound, how does the IC50 read?
Answer: Its IC50 is 10 to 100 µM.

Question: Which IC50 does the source give for `COc1cc(-c2nc3c(N4CCOCC4)cncc3[nH]2)cc(O)c1O` [Example 76, 3-methoxy-5-(7-morpholino-3H-imidazo[4,5-c]pyridin-2-yl)benzene-1,2-diol] here?
Answer: Its IC50 is 10 to 100 µM.

Question: How did the IC50 turn out when `O=C(O)c1ccc(-c2nc3ccncc3[nH]2)cc1O` [Example 2, 2-hydroxy-4-(3H-imidazo[4,5-c]pyridin-2-yl)benzoic acid] was run?
Answer: Its IC50 is 10 to 100 µM.

Question: For `COc1ccc2c(c1)nc(-c1cc(OC)c(O)c(O)c1C)n2C1CCC1` [Example 176, 4-(1-cyclobutyl-5-methoxy-1H-1,3-benzodiazol-2-yl)-6-methoxy-3-methylbenzene-1,2-diol], which IC50 is on record?
Answer: Its IC50 is 0.1 to 1 µM.

Question: With `COc1cc(-c2nc3cnncc3[nH]2)cc(O)c1O` [Example 14, 5-(1H-imidazo[4,5-d]pyridazin-2-yl)-3-methoxybenzene-1,2-diol] as the compound, how does the IC50 read?
Answer: The IC50 was greater than 100 µM.

Question: How did the IC50 turn out when `COc1cc(-c2nc3cc(N4CCOCC4)cnc3[nH]2)cc(O)c1O` [Example 70, 3-methoxy-5-(6-morpholino-3H-imidazo[4,5-b]pyridin-2-yl)benzene-1,2-diol] was run?
Answer: The IC50 was greater than 100 µM.

Question: For `COc1c(C)c(-c2nc3cc(N4CCC4)ccc3n2C2CCC2)cc(O)c1O` [Example 299, 5-(5-(azetidin-1-yl)-1-cyclobutyl-1H-benzo[d]imidazol-2-yl)-3-methoxy-4-methylbenzene-1,2-diol], which IC50 is on record?
Answer: Its IC50 is 10 to 100 µM.

Question: With `O=C(O)c1cc(-c2nc3ccccc3n2C2COC2)ccc1O` [Example 3, 2-hydroxy-5-(1-(oxetan-3-yl)-1H-benzo[d]imidazol-2-yl)benzoic acid] as the compound, how does the IC50 read?
Answer: The IC50 was greater than 100 µM.

Question: How did the IC50 turn out when `COc1cc(-c2nc3cc(N4CCN(C)CC4)ccc3[nH]2)cc(O)c1O` [Example 24, 3-methoxy-5-(5-(4-methylpiperazin-1-yl)-1H-benzo[d]imidazol-2-yl)benzene-1,2-diol] was run?
Answer: Its IC50 is greater than 100 µM.

Question: For `COc1cc(-c2nc3cc(Cl)c(Cl)cc3[nH]2)c(F)c(O)c1O` [Example 300, 4-(5,6-dichloro-1H-benzo[d]imidazol-2-yl)-3-fluoro-6-methoxybenzene-1,2-diol], which IC50 is on record?
Answer: The IC50 was 10 to 100 µM.

Question: `COc1cc(-c2nc3cc(N4CCN(C(=O)CCCC[C@@H]5SC[C@@H]6NC(=O)N[C@@H]65)CC4)ccc3[nH]2)cc(O)c1O` [Example 23, (3aS,4S,6aR)-4-(5-(4-(2-(3,4-dihydroxy-5-methoxyphenyl)-1H-benzo[d]imidazol-5-yl)piperazin-1-yl)-5-oxopentyl)tetrahydro-1H-thieno[3,4-d]imidazol-2(3H)-one] was tested. Which IC50 did it give?
Answer: Its IC50 is 1 to 10 µM.

Question: `COc1cc(-c2nc3cccc(NC(C)=O)c3n2C2(C)COC2)c(F)c(O)c1O` [Example 210, N-[2-(2-fluoro-3,4-dihydroxy-5-methoxyphenyl)-1-(3-methyloxetan-3-yl)-1H-1,3-benzodiazol-7-yl]acetamide] was tested. Which IC50 did it give?
Answer: The IC50 was 0.1 to 1 µM.

Question: `COc1cc(-c2nc3cc(N4CC5(C4)CN(C(C)C)C5)ccc3[nH]2)cc(O)c1O` [Example 153, 5-(5-(6-isopropyl-2,6-diazaspiro[3.3]heptan-2-yl)-1H-benzo[d]imidazol-2-yl)-3-methoxybenzene-1,2-diol] was tested. Which IC50 did it give?
Answer: Its IC50 is 10 to 100 µM.

Question: With `COc1cc(-c2nc3ccccc3[nH]2)cc(O)c1O` [Example 9, 5-(1H-benzo[d]imidazol-2-yl)-3-methoxybenzene-1,2-diol] as the compound, how does the IC50 read?
Answer: Its IC50 is greater than 100 µM.

Question: For `COc1cc(-c2nc3cc(N4CCN(C)C4=O)ccc3n2C2(C)COC2)c(F)c(O)c1O` [Example 197, 1-(2-(2-fluoro-3,4-dihydroxy-5-methoxyphenyl)-1-(3-methyloxetan-3-yl)-1H-benzo[d]imidazol-5-yl)-3-methylimidazolidin-2-one], which IC50 is on record?
Answer: Its IC50 is 0.1 to 1 µM.

Question: With `COc1cc(-c2nc3ccccc3n2C23CC(C2)C3)c(F)c(O)c1O` [Example 328, 4-(1-(bicyclo[1.1.1]pentan-1-yl)-1H-benzo[d]imidazol-2-yl)-3-fluoro-6-methoxybenzene-1,2-diol] as the compound, how does the IC50 read?
Answer: Its IC50 is no more than 0.1 µM.

Question: With `COc1cc(-c2nc3ccccc3n2C2CNC2)c(C)c(O)c1O` [Example 165, 4-(1-(azetidin-3-yl)-1H-benzo[d]imidazol-2-yl)-6-methoxy-3-methylbenzene-1,2-diol] as the compound, how does the IC50 read?
Answer: The IC50 was 10 to 100 µM.

Question: `COc1cc(-c2nc3ccccc3n2C2(C)COC2)c(C#N)c(O)c1O` [Example 216, 2,3-dihydroxy-4-methoxy-6-[1-(3-methyloxetan-3-yl)-1H-1,3-benzodiazol-2-yl]benzonitrile] was tested. Which IC50 did it give?
Answer: Its IC50 is 10 to 100 µM.

Question: Which IC50 does the source give for `COc1cc(-c2nc3ccc(-c4ncco4)cc3n2C2(C)COC2)c(F)c(O)c1O` [Example 296, 3-fluoro-6-methoxy-4-(1-(3-methyloxetan-3-yl)-6-(oxazol-2-yl)-1H-benzo[d]imidazol-2-yl)benzene-1,2-diol] here?
Answer: The IC50 was no more than 0.1 µM.

Question: `COc1cc(-c2nc3cc(N4CCC4)ccc3n2C2COC2)c(F)c(O)c1O` [Example 188, 4-(5-(azetidin-1-yl)-1-(oxetan-3-yl)-1H-benzo[d]imidazol-2-yl)-3-fluoro-6-methoxybenzene-1,2-diol] was tested. Which IC50 did it give?
Answer: Its IC50 is 1 to 10 µM.

Question: How did the IC50 turn out when `COc1cc(-c2nc3ccc(CNc4ccccc4)cc3n2C2(C)COC2)c(F)c(O)c1O` [Example 236, 3-fluoro-6-methoxy-4-(1-(3-methyloxetan-3-yl)-6-((phenylamino)methyl)-1H-benzo[d]imidazol-2-yl)benzene-1,2-diol] was run?
Answer: Its IC50 is 0.1 to 1 µM.

Question: For `CS(=O)(=O)N1CCN(c2ccc3[nH]c(-c4ccc(C(=O)O)c(O)c4)nc3c2)CC1` [Example 117, 2-hydroxy-4-(5-(4-(methylsulfonyl)piperazin-1-yl)-1H-benzo[d]imidazol-2-yl)benzoic acid], which IC50 is on record?
Answer: Its IC50 is 10 to 100 µM.

Question: With `COc1cc(-c2nc3cc(N4CCN(CC(F)(F)F)CC4)ccc3[nH]2)cc(O)c1O` [Example 52, 3-methoxy-5-(5-(4-(2,2,2-trifluoroethyl)piperazin-1-yl)-1H-benzo[d]imidazol-2-yl)benzene-1,2-diol] as the compound, how does the IC50 read?
Answer: The IC50 was greater than 100 µM.

Question: How did the IC50 turn out when `COc1cc(-c2nc3cc(N4CCN(C(=O)c5ccccc5)CC4)ccc3[nH]2)c(C(F)(F)F)c(O)c1O` [Example 30, (4-(2-(3,4-dihydroxy-5-methoxy-2-(trifluoromethyl)phenyl)-1H-benzo[d]imidazol-5-yl)piperazin-1-yl)(phenyl)methanone] was run?
Answer: The IC50 was 10 to 100 µM.

Question: How did the IC50 turn out when `O=C(O)c1ccc(-c2nc3cc(N4CCC4)ccc3[nH]2)c(F)c1O` [Example 129, 4-(5-(azetidin-1-yl)-1H-benzo[d]imidazol-2-yl)-3-fluoro-2-hydroxybenzoic acid] was run?
Answer: The IC50 was 1 to 10 µM.

Question: For `COc1cc(-c2nc3ccc(C(=O)NC4CC(F)(F)C4)cc3n2C2(C)COC2)c(F)c(O)c1O` [Example 205, N-(3,3-difluorocyclobutyl)-2-(2-fluoro-3,4-dihydroxy-5-methoxyphenyl)-1-(3-methyloxetan-3-yl)-1H-benzo[d]imidazole-6-carboxamide], which IC50 is on record?
Answer: The IC50 was no more than 0.1 µM.

Question: With `COc1cc(-c2nc3cc(N4CCC4)ccc3n2C)c(C(F)(F)F)c(O)c1O` [Example 221, 4-(5-(azetidin-1-yl)-1-methyl-1H-benzo[d]imidazol-2-yl)-6-methoxy-3-(trifluoromethyl)benzene-1,2-diol] as the compound, how does the IC50 read?
Answer: The IC50 was 1 to 10 µM.

Question: How did the IC50 turn out when `COc1cc(-c2nc3cc(N4CCN(c5ccccc5)CC4)ccc3[nH]2)cc(O)c1O` [Example 53, 3-methoxy-5-(5-(4-phenylpiperazin-1-yl)-1H-benzo[d]imidazol-2-yl)benzene-1,2-diol] was run?
Answer: The IC50 was greater than 100 µM.

Question: With `COc1cc(-c2nc3cc(N4CCN(c5ccncc5)CC4)ccc3[nH]2)cc(O)c1O` [Example 131, 3-methoxy-5-(5-(4-(pyridin-4-yl)piperazin-1-yl)-1H-benzo[d]imidazol-2-yl)benzene-1,2-diol] as the compound, how does the IC50 read?
Answer: Its IC50 is 10 to 100 µM.

Question: Which IC50 does the source give for `CNC(=O)c1ccc2c(c1)nc(-c1cc(OC)c(O)c(O)c1F)n2C1(C)COC1` [Example 308, 2-(2-fluoro-3,4-dihydroxy-5-methoxyphenyl)-N-methyl-1-(3-methyloxetan-3-yl)-1H-benzo[d]imidazole-5-carboxamide] here?
Answer: Its IC50 is 0.1 to 1 µM.

Question: How did the IC50 turn out when `COc1cc(-c2nc3cc(C(N)=O)ncc3n2C2(C)COC2)c(F)c(O)c1O` [Example 219, 2-(2-fluoro-3,4-dihydroxy-5-methoxyphenyl)-3-(3-methyloxetan-3-yl)-3H-imidazo[4,5-c]pyridine-6-carboxamide] was run?
Answer: The IC50 was 0.1 to 1 µM.

Question: `COc1cc(-c2nc3cc(N4CC5(CN(C(C)=O)C5)C4)ccc3[nH]2)cc(O)c1O` [Example 132, 1-(6-(2-(3,4-dihydroxy-5-methoxyphenyl)-1H-benzo[d]imidazol-5-yl)-2,6-diazaspiro[3.3]heptan-2-yl)ethan-1-one] was tested. Which IC50 did it give?
Answer: The IC50 was 10 to 100 µM.
